Consider two compounds from publication PMC8348901, “Novel N-Substituted 3-Aryl-4-(diethoxyphosphoryl)azetidin-2-ones as Antibiotic Enhancers and Antiviral Agents in Search for a Successful Treatment of Complex Infections” (International Journal of Molecular Sciences, 2021).

Where two headings read alike, the source gives them in different places.

One series deals with human coronavirus (229E). The experiment in a line: microbe, parasite or virus in culture. Format: cell-based.
The subject of series [1] is cytomegalovirus AD-169 strain. The experiment in a line: Antiviral CPE reduction assay, cytomegalovirus AD-169 strain in HEL cells. Format: cell-based, human cytomegalovirus (HCMV). Particulars: Human betaherpesvirus 5, AD169.
The next series deals with MRSA HEMSA 5. The experiment in a line: Oxacillin MIC reduction (adjuvant) microdilution assay. Format: cell-based, Staphylococcus aureus. As to conditions: MIC(OXA)/MIC(OXA+Cpd), compound 0.5 mM, adjuvant activity if A ≥ 4. The procedure: (§1) Since the lack of direct antibacterial activity of the obtained azetidinones was observed, all isomers trans and cis were investigated on their “adjuvant” properties, i.e., an ability to enhance the effectiveness of antibiotics against S. aureus strains. Thus, the compounds were tested in combination with the known β-lactam antibiotic, oxacillin, in the microdilution assays. The ability of the tested azetidinones to reduce minimum inhibitory concentration (MIC) of oxacillin against both, the referenced and the resistant S. aureus strains, was assessed.
(§2) The in-vitro antibacterial property and the capacity of tested compounds to increase the efficacy of antibiotics were evaluated in two Staphylococcus aureus strains, i.e., the reference clonal complex 5 (CC5) methicillin-susceptible (MSSA) strain ATCC 25923, and the methicillin-resistant (MRSA) extensively drug-resistant (XDR) clinical isolate HEMSA-5 [46].
(§3) In order to assess the increase of antibiotic efficacy, the assays were conducted by determining if/to what extent the investigated compounds reduce MICs of oxacillin by means of a serial dilution broth microplate method, in accordance with the CLSI requirements. The concentrations of compounds used in the MICs reduction assay were no greater than 1/4 of their respective MICs to ensure that cell viability was not affected by the intrinsic antibacterial activity of the molecules. Serial two-fold dilutions of oxacillin (Sigma-Aldrich; St. Louis, MI, USA, cat. no. 28221), were prepared in […] of the Mueller–Hinton broth (Merck; Darmstadt, Germany, cat. no. 1102930500). Suitable concentrations of the compounds (total volume […]) were then added. Bacterial suspensions were diluted to OD ¼ 0.5. The resulting suspensions were then diluted 1:100 and added in the volume of […] into the oxacillin serial dilutions with the compounds. The results were read after 20-h incubation at 37 °C.
(§4) The ability of compounds to improve antibiotic efficacy was expressed as the activity gain [A] parameter calculated according to the formula given in Figure 10.
(§5) Figure 10 Activity gain. MICAnt corresponds to the MIC of oxacillin in the absence of a compound tested and MICAnt + Comp refers to the MIC of oxacillin paired with a compound tested.

The test system of another series is S. aureus ATCC 25923. Described as above. As to conditions: MIC(OXA)/MIC(OXA+Cpd), compound 0.5 mM, adjuvant activity if A ≥ 4. Format: cell-based, Staphylococcus aureus. As to the method:
as §1, §2, §3, §4, §5

Series [2] deals with DND-41 (acute lymphoblastic leukemia). Description: Cytostatic activity (cell proliferation). Format: cell-based. As to conditions: DND41. The procedure:
(§6) The 50% cytostatic inhibitory concentration (IC50) causing a 50% decrease in cell proliferation was determined for all obtained compounds toward 9 cancerous cell lines, i.e.,: Capan-1 (pancreatic adenocarcinoma), Hap1 (chronic myeloid leukemia), HCT-116 (colorectal carcinoma), NCI-H460 (lung carcinoma), DND-41 (acute lymphoblastic leukemia), HL-60 (acute myeloid leukemia), K-562 (chronic myeloid leukemia), MM.1S (multiple myeloma), Z-138 non-Hodgkin lymphoma), as well as normal retina (non-cancerous) cells (hTERT RPE-1). Docetaxel, etoposide and stauroporine were used as the reference compounds.
(§7) All assays were performed in 96-well microtiter plates. To each well was added (5–7.5) × 10^4 tumor cells and a given amount of the tested compound. The cells were allowed to proliferate at 37 °C in a humidified, CO2-controlled atmosphere. At the end of the incubation period, the cells were counted in a Coulter counter. The IC50 (50% inhibitory concentration) was defined as the concentration of the compound that inhibited cell proliferation by 50%.

For series [3], the system named is HCT-116 (colorectal carcinoma). The experiment in a line: Cytostatic activity (cell proliferation). Format: cell-based. As to conditions: Homo sapiens, HCT-116. As to the method:
as §6, §7

For series [4], the system named is Hap1 (chronic myeloid leukemia). The experiment in a line: Cytostatic activity (cell proliferation). Particulars: Homo sapiens, HAP1. Format: cell-based. The procedure:
as §6, §7

Series [5] concerns NCI-H460 (lung carcinoma). The experiment in a line: Cytostatic activity (cell proliferation). Format: cell-based. Particulars: Homo sapiens, NCI-H460. As to the method:
as §6, §7

The subject of series [6] is hTERT RPE-1 normal retina (non-cancerous) cells. The experiment in a line: Cytostatic activity (cell proliferation). Format: cell-based. As to conditions: hTERT-RPE1. As to the method: as §6, §7
Series [7] concerns Capan-1 (pancreatic adenocarcinoma). The experiment in a line: Cytostatic activity (cell proliferation). Format: cell-based. Particulars: Homo sapiens, CAPAN-1. As to the method: The 50% cytostatic inhibitory concentration (IC50) causing a 50% decrease in cell proliferation was determined for all obtained compounds toward 9 cancerous cell lines, i.e.,: Capan-1 (pancreatic adenocarcinoma), Hap1 (chronic myeloid leukemia), HCT-116 (colorectal carcinoma), NCI-H460 (lung carcinoma), DND-41 (acute lymphoblastic leukemia), HL-60 (acute myeloid leukemia), K-562 (chronic myeloid leukemia), MM.1S (multiple myeloma), Z-138 non-Hodgkin lymphoma), as well as normal retina (non-cancerous) cells (hTERT RPE-1).
All assays were performed in 96-well microtiter plates. To each well was added (5–7.5) × 10^4 tumor cells and a given amount of the tested compound. The cells were allowed to proliferate at 37 °C in a humidified, CO2-controlled atmosphere. At the end of the incubation period, the cells were counted in a Coulter counter.

The subject of series [8] is human embryonic lung (HEL) cells. Particulars: uninfected host cells of the coronavirus/cytomegalovirus assays.
Series [9] relates to influenza A virus H1N1 subtype. The experiment in a line: Antiviral assay, influenza A virus H1N1 subtype in MDCK cells. Format: cell-based, influenza A virus H1N1 (A/PR/8).
The subject of series [10] is Madin Darby canine kidney cells (MDCK). Particulars: microscopically detectable alteration of cell morphology.
Another series can be described thus: in vitro. As to conditions: dog.

Consider `CCOP(=O)(OCC)[C@H]1[C@H](c2ccc(F)c(C)c2)C(=O)N1Cc1ccccc1` (relative stereo) [trans-11f, trans-N-benzyl-3-(4-fluoro-3-methylphenyl)-4-(diethoxyphosphoryl)azetidin-2-one], for which, in the series on human coronavirus (229E), the “Activity against human coronavirus (229E) relative to ribavirin” value is roughly 2.5 fold. Besides, the EC50 with human coronavirus (229E) (Human coronavirus 229E, HEL cells, reduction of virus-induced cytopathogenicity by 50%) was found to be 45 µM; in series [1] it was 54.7 µM. Further, the “Activity Gain [A]” value with MRSA HEMSA 5 turned out to be 16; with S. aureus ATCC 25923 it was 0.5. Moreover, the IC50 amounted to 65.8 µM in series [2]; 35.3 µM in series [3]; 46.5 µM in series [4]; 37 µM in [5]; 33.5 µM in series [6]; 34.8 µM in series [7]. In [8], the “Effect on normal cell morphology” value is recorded as “did not affect normal cell morphology”.

Take `CCOP(=O)(OCC)[C@@H]1[C@H](c2ccc(F)c(C)c2)C(=O)N1Cc1ccccc1` (relative stereo) [cis-11f, cis-N-benzyl-3-(4-fluoro-3-methylphenyl)-4-(diethoxyphosphoryl)azetidin-2-one]: the 50% effective concentration (EC50) was 12 µM in [9] (H1N1, MDCK cells, visual CPE score, read-out: EC50 by visual CPE score, influenza A virus H1N1) and 8.3 µM in [9] (H1N1, MDCK, read-out: EC50 by TMS score, influenza A virus H1N1). Further, the “Activity Gain [A]” value with MRSA HEMSA 5 is reported as 1–2; in the series with S. aureus ATCC 25923 it was less than 0.5. The IC50 was greater than 100 µM in [2]; greater than 100 µM in series [3]; greater than 100 µM in series [4]; 53.6 µM in series [5]; greater than 100 µM in series [6]; 38.4 µM in series [7]. Besides, the “MCC (minimum cytotoxic concentration)” value in series [10] is listed as greater than 100 µM. In addition, the CC50 in the series “in vitro” was 39.9 µM.
